Test results published in patent publication US8796245B2 (TetraPhase Pharmaceuticals, Inc., priority 2008, dated 2014).
Values after ≈ are worked out from the molar mass of the structure shown.

Tests used:
Assay type in all cases: cell-based
[1] = test system: K. pneumoniae ATCC 13883 (KP109); test: Minimum inhibitory concentration assay, KP109; details: Klebsiella pneumoniae, ATCC13883; K. pneumoniae ATCC 13883, wt; read-out: MICs KP109
Protocol: (§1) Frozen bacterial strains were thawed and subcultured onto Mueller Hinton Broth (MHB) or other appropriate media (Streptococcus requires blood and Haemophilus requires hemin and NAD). Following incubation overnight, the strains were subcultured onto Mueller Hinton Agar and again incubated overnight. […] Isolated colonies were selected to prepare a starting inoculum equivalent to a 0.5 McFarland standard. The starting inoculum was diluted 1:125 using MHB for further use. Test compounds were prepared by dilution in sterile water to a final concentration of 5.128 mg/mL. Antibiotics (stored frozen, thawed and used within 3 hours of thawing) and compounds were further diluted to the desired working concentrations.
(§2) The assays were run as follows. Fifty μL of MHB was added to wells 2-12 of a 96-well plate. One hundred […] of appropriately diluted antibiotics was added to well 1. Fifty μL of antibiotics was removed from well 1 and added to well 2 and the contents of well 2 mixed by pipetting up and down five times. Fifty μL of the mixture in well 2 was removed and added to well 3 and mixed as above. Serial dilutions were continued in the same manner through well 12. Fifty μL was removed from well 12 so that all contained 50 μL. Fifty μL of the working inoculum was then added to all test wells. A growth control well was prepared by adding 50 μL of working inoculum and 50 μL of MHB to an empty well. The plates were then incubated at 37° C. overnight, removed from the incubator and each well was read on a plate reading mirror. The lowest concentration (MIC) of test compound that inhibited the growth of the bacteria was recorded.

[2] = test system: E. cloacae ATCC 13047 (EC108); test: Minimum inhibitory concentration assay, EC108; details: Enterobacter cloacae, ATCC13047; E. cloacae ATCC 13047, wt; read-out: MICs EC108
Protocol: as §1, §2

[3] = test system: S. pneumoniae ATCC 49619 (SP106); test: Minimum inhibitory concentration assay, SP106; details: Streptococcus pneumoniae, ATCC49619; S. pneumoniae ATCC 49619, wt; read-out: MICs SP106
Protocol: as §1, §2

[4] = test system: E. faecalis ATCC 29212 (EF103); test: Minimum inhibitory concentration assay, EF103; details: Enterococcus faecalis, ATCC29212, read-out: MICs EF103
Protocol: as §1, §2

[5] = test system: S. aureus ATCC 29213 (SA101, MSSA); test: Minimum inhibitory concentration assay, SA101; details: Staphylococcus aureus; S. aureus ATCC 29213, MSSA control; read-out: MICs SA101
Protocol: as §1, §2

[6] = test system: S. pneumoniae SP160 (tet resistant: tet M); test: Minimum inhibitory concentration assay, SP160; details: Streptococcus pneumoniae, read-out: MICs SP160
Protocol: as §1, §2

[7] = test system: E. faecalis EF159 (tet resistant: tetM); test: Minimum inhibitory concentration assay, EF159; details: Enterococcus faecalis, read-out: MICs EF159
Protocol: as §1, §2

[8] = test system: S. aureus ATCC 13709 (SA100, MSSA, Smith strain); test: Minimum inhibitory concentration assay, SA100; details: Staphylococcus aureus; S. aureus ATCC 13709, MSSA Smith strain; read-out: MICs SA100
Protocol: as §1, §2

[9] = test system: P. aeruginosa ATCC 27853 (PA111); test: Minimum inhibitory concentration assay, PA111; details: Pseudomonas aeruginosa, ATCC27853; P. aeruginosa ATCC 27853, wt; read-out: MICs PA111
Protocol: as §1, §2

[10] = test system: S. aureus SA161 (tet resistant: tet(M) ribosomal protection); test: Minimum inhibitory concentration assay, SA161; details: Staphylococcus aureus, read-out: MICs SA161
Protocol: as §1, §2

[11] = test system: E. coli EC155 (tet resistant: tetA efflux); test: microbe, parasite or virus in culture; details: Escherichia coli; E. coli tet resistant: tetA (efflux); read-out: MICs EC155
Protocol: as §1, §2

[12] = test system: S. aureus SA158 (tet resistant: tetK efflux); test: microbe, parasite or virus in culture; details: Staphylococcus aureus, read-out: MICs SA158
Protocol: as §1, §2

[13] = test system: K. pneumoniae KP153 (tet resistant: tetA efflux); test: microbe, parasite or virus in culture; details: Klebsiella pneumoniae, read-out: MICs KP153
Protocol: as §1, §2

[14] = test system: E. coli ATCC 25922 (EC107); test: Minimum inhibitory concentration assay, EC107; details: Escherichia coli, ATCC25922; E. coli ATCC 25922, wt; read-out: MICs EC107
Protocol: as §1, §2

[15] = test system: A. baumanii ATCC 19606 (AB110); test: Minimum inhibitory concentration assay, AB110; details: Acinetobacter baumannii, ATCC19606; A. baumanii ATCC 19606, wt; read-out: MICs AB110
Protocol: as §1, §2

SMILES	MIC [1] [mg/L]	MIC [2] [mg/L]	MIC [3] [mg/L]	MIC [4] [mg/L]	MIC [5] [mg/L]	MIC [6] [mg/L]	MIC [7] [mg/L]	MIC [8] [mg/L]	MIC [9] [mg/L]	MIC [10] [mg/L]	MIC [11] [mg/L]	MIC [12] [mg/L]	MIC [13] [mg/L]	MIC [14] [mg/L]	MIC [15] [mg/L]
CN(C)[C@@H]1C(O)=C(C(N)=O)C(=O)[C@@]2(O)C(O)=C3C(=O)c4c(O)c(NC(=O)CC5CC(F)C5)cc(F)c4C[C@H]3C[C@@H]12 (stereo partly drawn) [Compound 33]	4 (≈ 7.12 µM)	16 (≈ 28.5 µM)	≤ 0.0156	0.25 (≈ 0.445 µM)	0.25 (≈ 0.445 µM)	0.125 (≈ 0.223 µM)	1 (≈ 1.78 µM)	0.5 (≈ 0.89 µM)	> 32	1 (≈ 1.78 µM)	> 32	2 (≈ 3.56 µM)	> 32	2 (≈ 3.56 µM)	4 (≈ 7.12 µM)
CCCNCC(=O)Nc1cc(F)c2c(c1O)C(=O)C1=C(O)[C@]3(O)C(=O)C(C(N)=O)=C(O)[C@@H](N(C)C)[C@@H]3C[C@@H]1C2 [Compound 12]	1 (≈ 1.83 µM)	1 (≈ 1.83 µM)	≤ 0.0156	≤ 0.0156	≤ 0.0156	≤ 0.0156	0.0625 (≈ 0.114 µM)	≤ 0.0156	16 (≈ 29.3 µM)	0.125 (≈ 0.229 µM)	8 (≈ 14.6 µM)	0.5 (≈ 0.915 µM)	4 (≈ 7.32 µM)	0.25 (≈ 0.457 µM)	1 (≈ 1.83 µM)
COCCNCC(=O)Nc1cc(F)c2c(c1O)C(=O)C1=C(O)[C@]3(O)C(=O)C(C(N)=O)=C(O)[C@@H](N(C)C)[C@@H]3C[C@@H]1C2 [Compound 21]	2 (≈ 3.56 µM)	4 (≈ 7.11 µM)	≤ 0.0156	0.125 (≈ 0.222 µM)	0.25 (≈ 0.444 µM)	0.0625 (≈ 0.111 µM)	1 (≈ 1.78 µM)	0.25 (≈ 0.444 µM)	16 (≈ 28.4 µM)	0.5 (≈ 0.889 µM)	16 (≈ 28.4 µM)	4 (≈ 7.11 µM)	8 (≈ 14.2 µM)	1 (≈ 1.78 µM)	2 (≈ 3.56 µM)
CN(C)[C@@H]1C(O)=C(C(N)=O)C(=O)[C@@]2(O)C(O)=C3C(=O)c4c(O)c(NC(=O)CN5CC[C@@H](F)C5)cc(F)c4C[C@H]3C[C@@H]12 [Compound 35]	4 (≈ 6.94 µM)	8 (≈ 13.9 µM)	0.016 (≈ 0.0278 µM)	0.125 (≈ 0.217 µM)	0.25 (≈ 0.434 µM)	0.016 (≈ 0.0278 µM)	0.25 (≈ 0.434 µM)	0.25 (≈ 0.434 µM)	> 32	0.5 (≈ 0.867 µM)	16 (≈ 27.8 µM)	0.5 (≈ 0.867 µM)	8 (≈ 13.9 µM)	1 (≈ 1.73 µM)	0.25 (≈ 0.434 µM)
CN(C)[C@@H]1C(O)=C(C(N)=O)C(=O)[C@@]2(O)C(O)=C3C(=O)c4c(O)c(NC(=O)CN5CCCCC5)cc(F)c4C[C@H]3C[C@@H]12 [Compound 43]	2 (≈ 3.49 µM)	4 (≈ 6.99 µM)	≤ 0.0156	0.25 (≈ 0.437 µM)	0.5 (≈ 0.873 µM)	≤ 0.0156	0.5 (≈ 0.873 µM)	0.5 (≈ 0.873 µM)	32 (≈ 55.9 µM)	1 (≈ 1.75 µM)	4 (≈ 6.99 µM)	0.5 (≈ 0.873 µM)	4 (≈ 6.99 µM)	1 (≈ 1.75 µM)	0.125 (≈ 0.218 µM)
CN(C)[C@@H]1C(O)=C(C(N)=O)C(=O)[C@@]2(O)C(O)=C3C(=O)c4c(O)c(NC(=O)CN5CCCC5)cc(F)c4C[C@H]3C[C@@H]12 [Compound 34]	0.5 (≈ 0.895 µM)	1 (≈ 1.79 µM)	≤ 0.0156	≤ 0.0156	≤ 0.0156	≤ 0.0156	≤ 0.0156	0.0625 (≈ 0.112 µM)	16 (≈ 28.6 µM)	0.0625 (≈ 0.112 µM)	2 (≈ 3.58 µM)	0.125 (≈ 0.224 µM)	2 (≈ 3.58 µM)	0.25 (≈ 0.448 µM)	0.125 (≈ 0.224 µM)
CN(C)[C@@H]1C(O)=C(C(N)=O)C(=O)[C@@]2(O)C(O)=C3C(=O)c4c(O)c(NC(=O)CNC5CCCC5)cc(F)c4C[C@H]3C[C@@H]12 [Compound 18]	0.5 (≈ 0.873 µM)	0.5 (≈ 0.873 µM)	≤ 0.0156	≤ 0.0156	0.0625 (≈ 0.109 µM)	≤ 0.0156	0.0313 (≈ 0.0547 µM)	≤ 0.0156	16 (≈ 27.9 µM)	0.0625 (≈ 0.109 µM)	4 (≈ 6.99 µM)	0.125 (≈ 0.218 µM)	4 (≈ 6.99 µM)	0.125 (≈ 0.218 µM)	0.25 (≈ 0.437 µM)
CN(C)[C@@H]1C(O)=C(C(N)=O)C(=O)[C@@]2(O)C(O)=C3C(=O)c4c(O)c(NC(=O)CNCC(C)(C)C)cc(F)c4C[C@H]3C[C@@H]12 [Compound 15]	2 (≈ 3.48 µM)	4 (≈ 6.96 µM)	0.016 (≈ 0.0278 µM)	0.5 (≈ 0.87 µM)	0.5 (≈ 0.87 µM)	0.016 (≈ 0.0278 µM)	0.5 (≈ 0.87 µM)	0.5 (≈ 0.87 µM)	16 (≈ 27.8 µM)	0.5 (≈ 0.87 µM)	4 (≈ 6.96 µM)	0.25 (≈ 0.435 µM)	4 (≈ 6.96 µM)	1 (≈ 1.74 µM)	0.125 (≈ 0.218 µM)
CCCN(C)CC(=O)Nc1cc(F)c2c(c1O)C(=O)C1=C(O)[C@]3(O)C(=O)C(C(N)=O)=C(O)[C@@H](N(C)C)[C@@H]3C[C@@H]1C2 [Compound 28]	4 (≈ 7.14 µM)	8 (≈ 14.3 µM)	0.125 (≈ 0.223 µM)	1 (≈ 1.78 µM)	1 (≈ 1.78 µM)	0.0625 (≈ 0.111 µM)	1 (≈ 1.78 µM)	2 (≈ 3.57 µM)	> 32	2 (≈ 3.57 µM)	16 (≈ 28.5 µM)	1 (≈ 1.78 µM)	16 (≈ 28.5 µM)	2 (≈ 3.57 µM)	0.5 (≈ 0.892 µM)
